Activity calls are given as the source filed them.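 The calls were made as follows: active = compounds giving half or more protection of infected cells from virus-caused growth loss, again on retest; inactive = the rest.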
Test system: CEM cells HIV-1 protection, formazan growth assay
Test: NCI AIDS Antiviral Assay
Settings: for IC50: measured here: growth of uninfected CEM cells
Procedure, shortened: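 CEM (human) cells, HIV-1 infected vs uninfected, 5-point dosing, formazan growth read-out. Retest threshold 50% protection.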

| Structure (SMILES) | outcome | EC50 [µM] | IC50 [µM] |
| --- | --- | --- | --- |
| COc1ccc(C2(C)OC(=O)c3ccccc32)c2ccccc12 (stereo not given) | inactive | – | – |
| C/C(=C\c1ccccc1)n1c(=O)cc(C)n1C | – | > 200 | > 200 |
| c1cc(-c2cnc(-c3ccc4c(c3)CCCO4)o2)ccn1 | – | > 200 | 50.1 |
| COc1cccc(NC(=O)CC(=O)n2nc(-c3ccccc3)c(N=Nc3ccc(Cl)cc3)c2-c2ccccc2)c1 | – | > 200 | 11.5 |
| O=c1c2cc3c(cc2c2cccc4c2n1CCC4)OCO3 | inactive | – | – |
| Cn1c(=O)cc(CNc2ccc(-c3ccccc3)cc2)c2ccccc21 | – | > 200 | 75.9 |
| CC1=Nn2c(nnc2-c2ccc(Cl)cc2)NC(C)(C)C1 | – | > 61.7 | > 61.7 |
| O=C1NC2(CN3CCC2CC3)C(=O)N1CN(Cc1ccccc1)c1ccccc1 (stereo not given) | – | > 200 | 91.2 |
| S=C(N/N=C/c1ccccc1)Nc1ccc(Oc2ccc(NC(=S)N/N=C/c3ccccc3)cc2)cc1 | – | 8.91 | 11.7 |
| CCOC(=O)/C(=C\c1cccc(F)c1)P(=O)(OCC)OCC | – | > 57.5 | 10.2 |
| CCc1cccc(C)c1NC(=O)C(=O)Cc1nc2ccccc2o1 | – | > 22.4 | > 22.4 |
| CN1C(=O)[C@@H]2[C@@H]3c4ccccc4N(S(=O)(=O)C(F)(F)F)[C@@H]3c3[nH]c4ccccc4c3[C@@H]2C1=O | – | > 200 | 9.33 |
| N#Cc1c(=O)n(O)c2ccccc2[n+]1[O-] | – | > 200 | > 200 |
| O=c1c(=O)c2cc(O)ccc12 | – | > 1700 | 282 |
| COc1c(C)c2c(c(C)c1Cl)Oc1c(C=O)c(O)c(Cl)c(C)c1C(=O)O2 | – | > 18.2 | > 18.2 |
| CC1=C(c2nc3ccccc3s2)C(=O)OC1(C)C | – | > 182 | 123 |
| O=C(O)CC[C@H](NC(=O)c1ccc(-n2nc3ccc(O)cc3nc2=O)cc1)C(=O)O | – | > 145 | > 145 |
| Cc1ccc(/C=C/c2nnc(N/N=C/c3ccc4c(c3)OCO4)[nH]c2=O)cc1 | – | > 200 | 95.5 |
| Cc1oc(C)c2c1C(=O)N(C)C2=O | – | > 100 | > 100 |
| CCCCc1ccc(-n2sc3ncccc3c2=O)cc1 | – | 1.74 | 8.32 |
| CC1=C(c2cc(C(=O)Nc3cc(C)ccc3C)nc(N)n2)Sc2ccccc2N1 | – | > 12.9 | > 12.9 |
| COC(=O)/C=C1/Nc2c(n(C)c(=O)n(C)c2=O)NC1=O | – | > 200 | > 200 |

| Structure (SMILES) | outcome | EC50 [µM] | IC50 [µM] |
| --- | --- | --- | --- |
| NC1=NS(=O)(=O)Nc2nc(-c3ccc([N+](=O)[O-])o3)[nH]c21 | – | > 200 | 10 |
| O=[N+]([O-])c1cccc2c(N3CC3)cnnc12 | inactive | – | – |
| COc1cc(CNC(=O)CCCCCCCC/C=C/Br)ccc1O | – | > 200 | 21.4 |
| CC(=O)Nc1ccc(/C=C2/SC(=S)N(/C=C(\c3ccccc3)S(=O)Cc3ccccc3)C2=O)cc1 (stereo not given) | – | > 200 | 89.1 |
| CN1CCN(CCCCN2c3ccccc3Sc3cc(N=[N+]=[N-])ccc32)CC1 | – | > 200 | 3.63 |
| C=C=C(C)C(=O)N(C(C)C)C(C)C | – | > 200 | > 200 |
| Cc1[cH-]c(=O)n(-c2ccccc2)n1.[Au+].[Au].c1ccc([PH+](c2ccccc2)c2ccccc2)cc1.c1ccc([PH+](c2ccccc2)c2ccccc2)cc1 | – | > 3.47 | > 3.47 |
| CC(=O)C1CCN(Cc2ccccc2)C1 (stereo not given) | inactive | – | – |
| c1ccc(-c2ccccn2)nc1 | – | > 1580 | 27.5 |
| COc1cc2c(cc1OC)C1C[C@]3(CCN1CC2)C(=O)N(c1ccccc1)C(=O)N3C(C)=O (stereo not given in full) | – | > 10 | > 10 |
| CCOC(=O)c1[nH]cc(C)c1-c1ccn(-c2ccccc2)c1 | – | > 200 | 45.7 |
| COP(=O)(OC)c1ccc(NCc2cc(O)ccc2O)cc1 | – | > 55 | 7.94 |
| C=C[C@]1(O[Si](C)(C)C)C[C@@]2(C(=O)OCC)C(O)C(=O)N3CCc4cc(OC)c(OC)cc4[C@]312 (stereo not given in full) | – | > 200 | > 200 |
| COc1cc(/C=C/c2csnn2)cc(OC)c1OC | – | > 468 | 117 |
| CC(=O)c1cc(I)c(O)c2ncccc12 | – | > 79.4 | 1.45 |
| O=C(CCc1ccc(O)c(O)c1)NCCc1ccc(O)c(O)c1 | – | > 200 | 9.55 |
| COC(=O)/C(=N\Nc1nc(=S)[nH]n1N)C(C#N)c1ccc(Cl)cc1 (stereo not given) | – | > 37.2 | > 37.2 |
| CC(=O)Oc1ccc(C2SCc3nc4ccccc4n32)cc1 (stereo not given) | – | > 200 | 18.2 |
| O=c1ccc2cc3ccoc3c(OCCOCCOCCOCCOc3c4occc4cc4ccc(=O)oc34)c2o1 | – | > 79.4 | 10.7 |
| COc1cc(C2c3cc4c(cc3C(O)[C@H]3COC(=O)[C@@H]23)OCO4)cc(OC)c1O (stereo not given in full) | – | > 200 | 1.12 |
| CN1C(=O)CCSC1=S | inactive | – | – |
| CCC1([N+](=O)[O-])CN(N=O)C1 | – | > 200 | > 200 |

| Structure (SMILES) | outcome | EC50 [µM] | IC50 [µM] |
| --- | --- | --- | --- |
| Clc1ccc(Nc2nnc(CCCCCCCCc3nnc(Nc4ccc(Cl)cc4)o3)o2)cc1 | – | > 200 | 45.7 |
| CN=c1nc2n3c(cccc3n1)NC(C)=N2 | – | > 100 | > 100 |
| C[n+]1cccc(O)c1 | inactive | – | – |
| O=C(O)c1cc2ccc(O)c(O)c2cn1 | – | > 56.2 | 2.04 |
| COC1CC(CC(C)=O)CN(C#N)CCc2c1[nH]c1ccccc21 (stereo not given) | – | > 132 | > 132 |
| NS(=O)(=O)c1cc2c(cc1Cl)NC(C(=O)c1cc(=O)c3ccc(O)cc3o1)=NS2(=O)=O | – | > 513 | > 513 |
| COc1cc(Nc2cnc3cc(N)ccc3n2)cc(OC)c1OC | – | > 200 | > 200 |
| O=C1C[C@H]2CCCN2[C@@H](c2ccccc2)C1 | – | > 603 | > 603 |
| CC(C)C(Sc1nc(-c2ccccc2)c(-c2ccccc2)[nH]1)C(=O)N/N=C/c1ccc(Cl)cc1 (stereo not given) | – | > 74.1 | > 74.1 |
| O=c1c(F)cn(Cc2c(Cl)cccc2Cl)c(=O)n1Cc1c(Cl)cccc1Cl | – | > 200 | 47.9 |
| Cc1c2ccn(O)cc2c(C)c2c1nc1ccccc12 | – | > 200 | 1.82 |
| CCN(CC)CCC(=O)NC1c2ccccc2Sc2c(C)cccc21 (stereo not given) | – | > 513 | 44.7 |
| CCOc1ccccc1NC(=O)C(=O)c1c(O)c2ccc(O)cc2oc1=O | – | > 490 | 182 |
| CCN1CCC(O)(/C=C/c2cccc(C)c2)C(C(=O)/C=C/c2cccc(C)c2)C1 (stereo not given) | – | > 200 | 3.55 |
| O=C(O)CCCc1ccc(N(CCCl)OCCCl)cc1 | – | > 200 | 21.9 |
| Oc1ccc(Cc2cc(Cc3ccc(O)cc3)cc(Cc3ccc(O)cc3)c2)cc1 | – | 93.3 | > 100 |
| O=c1cc([O-])[n+](C2OC(CO)C(O)C2O)c2sccn12 (stereo not given) | – | > 63.1 | > 63.1 |
| Cc1ccc2c(C3Cc4ccccc4N3C(=O)/C=C\C(=O)O)c(C)[nH]c2c1 (stereo not given) | – | > 363 | 60.3 |
| NC(Cc1ccc(N(CCCl)CCCl)cc1)C(=O)O (stereo not given) | – | > 200 | 12 |
| CCOC(=O)C(NCc1ccc2c(c1)OCO2)(NC(=O)c1ccccc1)C(F)(F)F (stereo not given) | – | > 200 | 30.2 |
| C/C(=C\C(=O)Nc1ccc2n[nH]nc2c1)Nc1ccc2n[nH]nc2c1 | inactive | – | – |
| CC(=O)N(C(C)=O)c1cc2c3c(c1)CCCN3CCC2 | – | > 200 | 182 |
